Values quoted from earlier work in patent US20220273015A1, “FORMULATIONS AND USES THEREOF” (priority 2021, published 2022).
“Also recorded” adds a separate entry of the source.

What was measured:
[1] = for Stability: best preserved in an alcoholic tincture; for Properties: properties in words from a review of the primary literature (PMIDs in the cell), wrapped cell lines
[2] = system: atypical/precancerous stem cells; details: used separately or together in one study
[3] = <1 ug daily, postoperative control of analgesia

Compound: O=c1cc(-c2ccc(O)cc2)oc2cc(O)cc(O)c12 [Apigenin]
- Anti-cancer / cytotoxic / antitumor properties ([1]; qualitative, PMID-cited): exerts an antitumor effect in preclinical models

Compound: C=C1/C(=C\C=C2/CCC[C@]3(C)[C@@H]([C@H](C)/C=C/[C@@H](O)C4CC4)CC[C@@H]23)C[C@@H](O)C[C@@H]1O [calcipotriene]
- chronic plaque psoriasis ([1]; topical application, PMID 10753146): topical application of calcipotriene improves

Compound: CCCCCCCCCCCCCCCC(=O)O [Palmitic Acid]
- Wound healing / skin repair and skin health ([1]; qualitative, PMID-cited): Palmitic Acid is a saturated fat essential to skin

Compound: CCc1ccc(C)c2ccc(C)c-2c1 [chamazulene]
- Stability [1]: are very unstable and are best preserved in an

Compound: CCCCCCCC/C=C\CCCCCCCC(=O)O [Oleic acid]
- lipophilic penetration of skin cells ([1]; "may enhance", PMID 21871866, PMID 2367329): enhance lipophilic penetration of skin cells
- effect on the cell membrane allowing for drug permeability ([1]; PMID 2235880): 21871866) and creates a temporary disruption
- targeted drug delivery across the skin ([1]; PMID 2514720): facilitate targeted drug delivery across the skin

Compound: CCCCC/C=C\C/C=C\CCCCCCCC(=O)O [Linoleic acid]
- Wound healing / skin repair and skin health ([1]; qualitative, PMID-cited): shown to lighten UV-induced

Compound: C=C(C)[C@H]1CC=C(C)CC1 [D-limonene]
- Antimicrobial, antiparasitic, insecticidal / insect repellent properties ([1]; qualitative, PMID-cited): a result. D-limonene has antimicrobial
- Effects in animal models ([1]; qualitative, rodent/animal models, PMID-cited): more capable. D-limonene has a mild diuretic

Compound: Vitamin E
- Properties [1]: skin barrier stabilizing properties (PMID

Compound: CCCCCCCCCCCCCCCCCC(=O)O [Stearic acid]
- Metabolic and cardiovascular effects (lipids, blood pressure, glucose, clotting) ([1]; qualitative, PMID-cited): 10945745) and can increase the “good”
- Wound healing / skin repair and skin health ([1]; qualitative, PMID-cited): a saturated fatty acid beneficial to skin; also recorded: important in wound healing of burns (PMID

Compound: O=C(O)CCCCC1CCSS1 (stereo not drawn) [Alpha-Lipoic Acid]
- blood flow to damaged nerves, nerve conduction velocity, and other measures of nerve function ([1]; PMID 25381809): microcirculation (PMID 160261130), improves
- diabetic polyneuropathy ([1]; PMID 160261130): improving
- microcirculation ([1]; PMID 160261130): oxidative stress, aging, cancer, improves
- oxidative stress, aging, cancer ([1]; PMID 160261130): reducing
- antioxidant protection of lipids ([1]; such as those found in the myelin sheath of neurons): Antioxidant which specifically protects lipids

Compound: CCCCC/C=C\C/C=C\CCCCCCCC(=O)O [linoleic acid]
- Safety / toxicity ([1]; qualitative): in high quantities is associated with higher rates
- Wound healing / skin repair and skin health ([1]; qualitative, PMID-cited): polyunsaturated fat that improves skin barrier

Compound: O=c1c(O)c(-c2ccc(O)c(O)c2)oc2cc(O)cc(O)c12 [Quercetin]
- Anti-cancer / cytotoxic / antitumor properties ([1]; qualitative, PMID-cited): antitumor effects PMID 31880372) the ability

Compound: CC(C)=CCC/C(C)=C/CC/C(C)=C/CC/C(C)=C/CC/C(C)=C/CC/C(C)=C/CC/C(C)=C/CC1=C(C)C(=O)c2ccccc2C1=O [MK7]
- bone mineral density ([1]; by facilitating signaling cascades which improve translocation of calcium from the serum into the bony matrix, PMID 32244313): other vitamin K homologs. MK7 increases

Compound: O=C1CC[C@@]2(O)[C@H]3Cc4ccc(O)c5c4[C@@]2(CCN3CC2CC2)[C@H]1O5 [VLDN]
- tolerability of opioid-weaning methadone taper ([1]; <1 ug X <0.5 mg daily): VLDN: boosting tolerability of opioid-weaning

Compound: O=C1CC[C@@]2(O)[C@H]3Cc4ccc(O)c5c4[C@@]2(CCN3CC2CC2)[C@H]1O5 [ULDN]
- need for total amount of opioids following surgery [1, 3]: (reduces the need for total amount of opioids
- side-effects of opioid-related treatment [1, 3]: following surgery and ameliorating side-effects

Compound: O=C(O)c1cc(O)c(O)c(O)c1 [Gallic Acid]
- antioxidant, anti-inflammatory, anti-microbial, anti-cancer activities ([1]; PMID 30657034): Powerful antioxidant, anti-inflammatory, anti-
- preventing and treating acne ([1]; PMID 32390309, PMID 30617549): 23501608). Useful in preventing and treating
- inhibitory properties against cancer ([1]; in vitro and in vivo, PMID 23501608): Plant polyphenol with strong inhibitory
- NFKB, Akt, COX, ribonucleotide reductase and GSH pathways ([1]; mechanism of anti-cancer effect, PMID 23501608): (PMID 23501608) by inhibition of NFKB, Akt,
- ATM kinase signaling ([1]; to prevent carcinogenesis, PMID 23501608): pathways; and also activates ATM kinase

Compound: CCCCCCCC/C=C\CCCCCCCC(=O)O [Oleic acid (OA)]
- Safety / toxicity ([1]; qualitative): lead to heart failure (PMID 28391879) though
- Skin penetration / delivery of ingredients across skin and membranes ([1]; qualitative, PMID-cited): Oleic acid (OA) enhances lipophilic penetration

Compound: CC(=O)N[C@@H](CS)C(=O)O [N-Acetyl Cysteine (NAC)]
- Properties [1]: completely blocks Reactive Oxygen Species

Compound: COc1cc(/C=C/C(=O)CC(=O)/C=C/c2ccc(O)c(OC)c2)ccc1O [curcumin]
- number of atypical/precancerous stem cells [2]: reduced

Compound: CC(C)=CCC[C@](C)(O)C1CC=C(C)CC1 (stereo partly drawn) [bisabolol]
- Stability [1]: are very unstable and are best preserved in an

Compound: COc1cc(CCC(C)=O)ccc1O [zingerone]
- diuretic effect ([1]; observed only at a dose of 30 mg/kg in normal mice, PMID 20606379): Oil, zingerone exhibited a mild diuretic effect
